According to PubChem BioAssay (NCI):
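96-well plates; 48 h exposure; 5 concentrations. Endpoints by linear interpolation between flanking doses. Not reached: highest tested concentration assigned. Here, GI50 denotes the concentration required for 50% inhibition of growth. At the TGI there is no net growth.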

Legend:
Assay in all cases: growth of human tumour cells (NCI), 48 h
HCT-116 colon = system: HCT-116 colon
UACC-62 melanoma = system: UACC-62 melanoma
SNB-19 CNS = system: SNB-19 CNS
OVCAR-8 ovarian = system: OVCAR-8 ovarian
K-562 leukemia = system: K-562 leukemia
NCI-H23 lung = system: NCI-H23 lung
UACC-257 melanoma = system: UACC-257 melanoma
T-47D breast = system: T-47D breast
HCC-2998 colon = system: HCC-2998 colon
DU-145 prostate = system: DU-145 prostate
HT29 colon = system: HT29 colon
SK-MEL-28 melanoma = system: SK-MEL-28 melanoma
MDA-MB-435 = system: MDA-MB-435
SF-268 CNS = system: SF-268 CNS
NCI-H522 lung = system: NCI-H522 lung
LOX IMVI melanoma = system: LOX IMVI melanoma
NCI-H226 lung = system: NCI-H226 lung
HOP-92 NSCLC = system: HOP-92 NSCLC
CAKI-1 renal = system: CAKI-1 renal
MCF7 breast = system: MCF7 breast
OVCAR-3 ovarian = system: OVCAR-3 ovarian
MDA-MB-468 breast = system: MDA-MB-468 breast
RXF 393 renal = system: RXF 393 renal
MDA-MB-231 breast = system: MDA-MB-231 breast
SR leukemia = system: SR leukemia
MOLT-4 leukemia = system: MOLT-4 leukemia
IGROV1 ovarian = system: IGROV1 ovarian
UO-31 renal = system: UO-31 renal
RPMI-8226 leukemia = system: RPMI-8226 leukemia
NCI/ADR-RES ovarian = system: NCI/ADR-RES ovarian
KM12 colon = system: KM12 colon
EKVX NSCLC = system: EKVX NSCLC
PC-3 prostate = system: PC-3 prostate
M14 melanoma = system: M14 melanoma
A549 NSCLC = system: A549 NSCLC
OVCAR-5 ovarian = system: OVCAR-5 ovarian
HL-60(TB) leukemia = system: HL-60(TB) leukemia
A498 renal = system: A498 renal
SF-539 CNS = system: SF-539 CNS
HS 578T breast = system: HS 578T breast
SF-295 CNS = system: SF-295 CNS
SNB-75 CNS = system: SNB-75 CNS
CCRF-CEM leukemia = system: CCRF-CEM leukemia
BT-549 breast = system: BT-549 breast
OVCAR-4 ovarian = system: OVCAR-4 ovarian
U251 CNS = system: U251 CNS
786-0 renal = system: 786-0 renal
MALME-3M melanoma = system: MALME-3M melanoma
TK-10 renal = system: TK-10 renal
HOP-62 NSCLC = system: HOP-62 NSCLC
NCI-H460 lung = system: NCI-H460 lung
SK-OV-3 ovarian = system: SK-OV-3 ovarian
HCT-15 colon = system: HCT-15 colon
SK-MEL-5 melanoma = system: SK-MEL-5 melanoma
SN12C renal = system: SN12C renal
SK-MEL-2 melanoma = system: SK-MEL-2 melanoma
ACHN renal = system: ACHN renal
SW-620 colon = system: SW-620 colon
COLO 205 colon = system: COLO 205 colon

COc1cnc2c(c1)C(=O)c1c-2n(CCCNC(C)C)c(=O)c2cc(OC)c(OC)cc12
GI50 (HCT-116 colon): 1.02 µM | TGI (HCT-116 colon): 12.8 µM | GI50 (UACC-62 melanoma): 2.43 µM | TGI (UACC-62 melanoma): 16.1 µM | GI50 (SNB-19 CNS): 1.2 µM | TGI (SNB-19 CNS): 12.8 µM | GI50 (OVCAR-8 ovarian): 6.05 µM | TGI (OVCAR-8 ovarian): 22.1 µM | GI50 (K-562 leukemia): 0.496 µM | TGI (K-562 leukemia): 22.5 µM | GI50 (NCI-H23 lung): 0.977 µM | TGI (NCI-H23 lung): 11.3 µM | GI50 (UACC-257 melanoma): 12 µM | TGI (UACC-257 melanoma): 25.2 µM | GI50 (T-47D breast): 4.97 µM | TGI (T-47D breast): 22.2 µM | GI50 (HCC-2998 colon): 3.09 µM | TGI (HCC-2998 colon): 16.8 µM | GI50 (DU-145 prostate): 1.27 µM | TGI (DU-145 prostate): 13.5 µM | GI50 (HT29 colon): 1.43 µM | TGI (HT29 colon): 10.1 µM | GI50 (SK-MEL-28 melanoma): 16 µM | TGI (SK-MEL-28 melanoma): 29.7 µM | GI50 (MDA-MB-435): 6.52 µM | TGI (MDA-MB-435): 20.3 µM | GI50 (SF-268 CNS): 1.31 µM | TGI (SF-268 CNS): 19.1 µM | GI50 (NCI-H522 lung): 0.536 µM | TGI (NCI-H522 lung): 12.6 µM | GI50 (LOX IMVI melanoma): 1.19 µM | TGI (LOX IMVI melanoma): 4.6 µM | GI50 (NCI-H226 lung): 2.55 µM | TGI (NCI-H226 lung): 16.6 µM | GI50 (HOP-92 NSCLC): 9.11 µM | TGI (HOP-92 NSCLC): 23.9 µM | GI50 (CAKI-1 renal): 2.17 µM | TGI (CAKI-1 renal): 15.7 µM | GI50 (MCF7 breast): 0.222 µM | TGI (MCF7 breast): 11.9 µM | GI50 (OVCAR-3 ovarian): 8.99 µM | TGI (OVCAR-3 ovarian): 22.6 µM | GI50 (MDA-MB-468 breast): 0.68 µM | TGI (MDA-MB-468 breast): 7.75 µM | GI50 (RXF 393 renal): 1.35 µM | TGI (RXF 393 renal): 5.71 µM | GI50 (MDA-MB-231 breast): 3.35 µM | TGI (MDA-MB-231 breast): 17.9 µM | GI50 (SR leukemia): 0.369 µM | TGI (SR leukemia): 4.85 µM | GI50 (MOLT-4 leukemia): 0.107 µM | TGI (MOLT-4 leukemia): 5.59 µM | GI50 (IGROV1 ovarian): 10.8 µM | TGI (IGROV1 ovarian): 23.3 µM | GI50 (UO-31 renal): 5.88 µM | TGI (UO-31 renal): 19.7 µM | GI50 (RPMI-8226 leukemia): 1.39 µM | TGI (RPMI-8226 leukemia): 14.9 µM | GI50 (NCI/ADR-RES ovarian): 1.73 µM | TGI (NCI/ADR-RES ovarian): 14.6 µM | GI50 (KM12 colon): 8.02 µM | TGI (KM12 colon): 21.9 µM | GI50 (EKVX NSCLC): 10.4 µM | TGI (EKVX NSCLC): 22.4 µM | GI50 (PC-3 prostate): 6.53 µM | TGI (PC-3 prostate): 30.5 µM | GI50 (M14 melanoma): 4.91 µM | TGI (M14 melanoma): 20 µM | GI50 (A549 NSCLC): 5.7 µM | TGI (A549 NSCLC): 23.8 µM | GI50 (OVCAR-5 ovarian): 12.3 µM | TGI (OVCAR-5 ovarian): 25.5 µM | GI50 (HL-60(TB) leukemia): 3.54 µM | TGI (HL-60(TB) leukemia): 17.2 µM | GI50 (A498 renal): 14.2 µM | TGI (A498 renal): 27.5 µM | GI50 (SF-539 CNS): 1.36 µM | TGI (SF-539 CNS): 3.76 µM | GI50 (HS 578T breast): 11.2 µM | TGI (HS 578T breast): 32.6 µM | GI50 (SF-295 CNS): 0.29 µM | TGI (SF-295 CNS): 12.6 µM | GI50 (SNB-75 CNS): 0.155 µM | TGI (SNB-75 CNS): 7.49 µM | GI50 (CCRF-CEM leukemia): 0.256 µM | TGI (CCRF-CEM leukemia): 89.9 µM | GI50 (BT-549 breast): 4.26 µM | TGI (BT-549 breast): 20.6 µM | GI50 (OVCAR-4 ovarian): 2.5 µM | TGI (OVCAR-4 ovarian): 7.63 µM | GI50 (U251 CNS): 0.667 µM | TGI (U251 CNS): 17.2 µM | GI50 (786-0 renal): 5.51 µM | TGI (786-0 renal): 19.1 µM | GI50 (MALME-3M melanoma): 11.5 µM | TGI (MALME-3M melanoma): 24 µM | GI50 (TK-10 renal): 14.2 µM | TGI (TK-10 renal): 28 µM | GI50 (HOP-62 NSCLC): 0.702 µM | TGI (HOP-62 NSCLC): 7.94 µM | GI50 (NCI-H460 lung): 0.3 µM | TGI (NCI-H460 lung): 11.9 µM | GI50 (SK-OV-3 ovarian): 1.52 µM | TGI (SK-OV-3 ovarian): 8.18 µM | GI50 (HCT-15 colon): 1.86 µM | TGI (HCT-15 colon): 16.3 µM | GI50 (SK-MEL-5 melanoma): 1.7 µM | TGI (SK-MEL-5 melanoma): 11.9 µM | GI50 (SN12C renal): 4.19 µM | TGI (SN12C renal): > 100 µM | GI50 (SK-MEL-2 melanoma): 18.5 µM | TGI (SK-MEL-2 melanoma): 37.8 µM | GI50 (ACHN renal): 1.75 µM | TGI (ACHN renal): 13.7 µM | GI50 (SW-620 colon): 0.946 µM | TGI (SW-620 colon): 20.5 µM | GI50 (COLO 205 colon): 5.74 µM | TGI (COLO 205 colon): 22.6 µM
